Test results reported in ChEMBL document CHEMBL3885861, “Open TG-GATES”.

Species: Rattus norvegicus
Experiment: Open TG-GATES - Regimen: Daily Repeat
Type: toxicity, organism-based, Sprague-Dawley
Set-up: regimen Daily Repeat, gender Male, age 6 weeks
Details: in vivo, po, 300 mg/kg, route gavage, dose level Middle; for APTT / Bas / Eos / Fbg / Hb / Ht / Lym / MCH / MCHC / MCV / Mono / Neu / PT / Plat / RBC / Ret / WBC: tissue Blood; for KIDNEY_L / KIDNEY_R / KIDNEY_TOTAL: tissue Kidney; for LIVER: tissue Liver; for A/G / ALP / ALT / AST / BUN / CRE / Ca / Cl / DBIL / GLC / IP / K / LDH / Na / PL / RALB / TBIL / TC / TG / TP / gamma-GTP: tissue Plasma

SMILES: C[C@H]1O[C@H](O[C@H]2[C@H](O)[C@@H](O)[C@@H](O[C@H]3[C@H](O)[C@@H](O)C(O)O[C@@H]3CO)O[C@@H]2CO)[C@H](O)[C@@H](O)[C@@H]1N[C@H]1C=C(CO)[C@@H](O)[C@H](O)[C@H]1O (some centres not stated) [ACARBOSE]
- TERMINAL_BW (72 h, time 3 day): 230.6 g
- APTT (72 h, time 3 day): 16.3 s
- Bas (72 h, time 3 day): 0.2%
- Eos (72 h, time 3 day): 1%
- Fbg (72 h, time 3 day): 299.4 mg/dL
- Hb (72 h, time 3 day): 13.6 g/dL
- Ht (72 h, time 3 day): 41%
- Lym (72 h, time 3 day): 76.6%
- MCH (72 h, time 3 day): 21 pg
- MCHC (72 h, time 3 day): 33.3%
- MCV (72 h, time 3 day): 63 fL
- Mono (72 h, time 3 day): 3%
- Neu (72 h, time 3 day): 18.4%
- PT (72 h, time 3 day): 13 s
- Plat (72 h, time 3 day): 120.6 x10_4/uL
- RBC (72 h, time 3 day): 650.8 x10_4/ul
- Ret (72 h, time 3 day): 7.2%
- WBC (72 h, time 3 day): 104.1 x10_2/uL
- KIDNEY_L (72 h, time 3 day): 1.1 g
- KIDNEY_R (72 h, time 3 day): 1.1 g
- KIDNEY_TOTAL (72 h, time 3 day): 2.1 g
- LIVER (72 h, time 3 day): 11.2 g
- A/G (72 h, time 3 day): 0.9
- ALP (72 h, time 3 day): 1565.8 IU/L
- ALT (72 h, time 3 day): 39.4 IU/L
- AST (72 h, time 3 day): 67.2 IU/L
- BUN (72 h, time 3 day): 12.6 mg/dL
- CRE (72 h, time 3 day): 0.2 mg/dL
- Ca (72 h, time 3 day): 10.7 mg/dL
- Cl (72 h, time 3 day): 103 meq/L
- DBIL (72 h, time 3 day): 0.01 mg/dL
- GLC (72 h, time 3 day): 170.8 mg/dL
- IP (72 h, time 3 day): 8.2 mg/dL
- K (72 h, time 3 day): 3.9 meq/L
- LDH (72 h, time 3 day): 89.6 IU/L
- Na (72 h, time 3 day): 140.4 meq/L
- PL (72 h, time 3 day): 148.4 mg/dL
- RALB (72 h, time 3 day): 2.6 g/dL
- TBIL (72 h, time 3 day): 0.06 mg/dL
- TC (72 h, time 3 day): 81 mg/dL
- TG (72 h, time 3 day): 98 mg/dL
- TP (72 h, time 3 day): 5.5 g/dL
- gamma-GTP (72 h, time 3 day): 1.2 IU/L
- TERMINAL_BW ([…], time 7 day): 272.1 g
- TERMINAL_BW ([…], time 14 day): 332.7 g
- TERMINAL_BW ([…], time 28 day): 401.7 g
- APTT ([…], time 7 day): 17.2 s
- Bas ([…], time 7 day): 0%
- Eos ([…], time 7 day): 1%
- Fbg ([…], time 7 day): 323 mg/dL
- Hb ([…], time 7 day): 14.1 g/dL
- Ht ([…], time 7 day): 41.7%
- Lym ([…], time 7 day): 74.6%
- MCH ([…], time 7 day): 21.1 pg
- MCHC ([…], time 7 day): 33.8%
- MCV ([…], time 7 day): 62.4 fL
- Mono ([…], time 7 day): 2.6%
- Neu ([…], time 7 day): 21%
- PT ([…], time 7 day): 13.1 s
- Plat ([…], time 7 day): 128.3 x10_4/uL
- RBC ([…], time 7 day): 669.4 x10_4/ul
- Ret ([…], time 7 day): 6.1%
- WBC ([…], time 7 day): 95.8 x10_2/uL
- APTT ([…], time 14 day): 23.4 s
- Bas ([…], time 14 day): 0%
- Eos ([…], time 14 day): 0.8%
- Fbg ([…], time 14 day): 272.2 mg/dL
- Hb ([…], time 14 day): 14.8 g/dL
- Ht ([…], time 14 day): 44%
- Lym ([…], time 14 day): 78.8%
- MCH ([…], time 14 day): 21 pg
- MCHC ([…], time 14 day): 33.7%
- MCV ([…], time 14 day): 62.2 fL
- Mono ([…], time 14 day): 2%
- Neu ([…], time 14 day): 17.8%
- PT ([…], time 14 day): 13.2 s
- Plat ([…], time 14 day): 126.6 x10_4/uL
- RBC ([…], time 14 day): 706.8 x10_4/ul
- Ret ([…], time 14 day): 5%
- WBC ([…], time 14 day): 105.8 x10_2/uL
- APTT ([…], time 28 day): 20.2 s
- Bas ([…], time 28 day): 0%
- Eos ([…], time 28 day): 1%
- Fbg ([…], time 28 day): 282.8 mg/dL
- Hb ([…], time 28 day): 15.3 g/dL
- Ht ([…], time 28 day): 44.4%
- Lym ([…], time 28 day): 79.6%
- MCH ([…], time 28 day): 20.2 pg
- MCHC ([…], time 28 day): 34.4%
- MCV ([…], time 28 day): 58.6 fL
- Mono ([…], time 28 day): 2%
- Neu ([…], time 28 day): 16%
- PT ([…], time 28 day): 13.7 s
- Plat ([…], time 28 day): 95.8 x10_4/uL
- RBC ([…], time 28 day): 757.4 x10_4/ul
- Ret ([…], time 28 day): 2.2%
- WBC ([…], time 28 day): 88.5 x10_2/uL
- KIDNEY_L ([…], time 7 day): 1.1 g
- KIDNEY_R ([…], time 7 day): 1.1 g
- KIDNEY_TOTAL ([…], time 7 day): 2.3 g
- KIDNEY_L ([…], time 14 day): 1.2 g
- KIDNEY_R ([…], time 14 day): 1.3 g
- KIDNEY_TOTAL ([…], time 14 day): 2.5 g
- KIDNEY_L ([…], time 28 day): 1.4 g
- KIDNEY_R ([…], time 28 day): 1.3 g
- KIDNEY_TOTAL ([…], time 28 day): 2.7 g
- LIVER ([…], time 7 day): 12.7 g
- LIVER ([…], time 14 day): 15.1 g
- LIVER ([…], time 28 day): 16.3 g
- A/G ([…], time 7 day): 0.9
- ALP ([…], time 7 day): 1607 IU/L
- ALT ([…], time 7 day): 50 IU/L
- AST ([…], time 7 day): 77.2 IU/L
- BUN ([…], time 7 day): 16.4 mg/dL
- CRE ([…], time 7 day): 0.2 mg/dL
- Ca ([…], time 7 day): 10.9 mg/dL
- Cl ([…], time 7 day): 104.2 meq/L
- DBIL ([…], time 7 day): 0.012 mg/dL
- GLC ([…], time 7 day): 183.6 mg/dL
- IP ([…], time 7 day): 7.5 mg/dL
- K ([…], time 7 day): 4.2 meq/L
- LDH ([…], time 7 day): 80.6 IU/L
- Na ([…], time 7 day): 142 meq/L
- PL ([…], time 7 day): 147.6 mg/dL
- RALB ([…], time 7 day): 2.6 g/dL
- TBIL ([…], time 7 day): 0.054 mg/dL
- TC ([…], time 7 day): 75 mg/dL
- TG ([…], time 7 day): 91.6 mg/dL
- TP ([…], time 7 day): 5.7 g/dL
- gamma-GTP ([…], time 7 day): 1 IU/L
- A/G ([…], time 14 day): 0.8
- ALP ([…], time 14 day): 1744.6 IU/L
- ALT ([…], time 14 day): 39 IU/L
- AST ([…], time 14 day): 69.8 IU/L
- BUN ([…], time 14 day): 16.2 mg/dL
- CRE ([…], time 14 day): 0.2 mg/dL
- Ca ([…], time 14 day): 10.6 mg/dL
- Cl ([…], time 14 day): 105 meq/L
- DBIL ([…], time 14 day): 0.01 mg/dL
- GLC ([…], time 14 day): 186 mg/dL
- IP ([…], time 14 day): 6.8 mg/dL
- K ([…], time 14 day): 4.1 meq/L
- LDH ([…], time 14 day): 95.2 IU/L
- Na ([…], time 14 day): 142 meq/L
- PL ([…], time 14 day): 141.6 mg/dL
- RALB ([…], time 14 day): 2.7 g/dL
- TBIL ([…], time 14 day): 0.05 mg/dL
- TC ([…], time 14 day): 67.4 mg/dL
- TG ([…], time 14 day): 135.4 mg/dL
- TP ([…], time 14 day): 5.9 g/dL
- gamma-GTP ([…], time 14 day): 1 IU/L
- A/G ([…], time 28 day): 0.8
- ALP ([…], time 28 day): 1170.4 IU/L
- ALT ([…], time 28 day): 46.4 IU/L
- AST ([…], time 28 day): 70.8 IU/L
- BUN ([…], time 28 day): 15.6 mg/dL
- CRE ([…], time 28 day): 0.2 mg/dL
- Ca ([…], time 28 day): 10.8 mg/dL
- Cl ([…], time 28 day): 105 meq/L
- DBIL ([…], time 28 day): 0.012 mg/dL
- GLC ([…], time 28 day): 190.8 mg/dL
- IP ([…], time 28 day): 5.9 mg/dL
- K ([…], time 28 day): 4.1 meq/L
- LDH ([…], time 28 day): 82.6 IU/L
- Na ([…], time 28 day): 142.2 meq/L
- PL ([…], time 28 day): 141.6 mg/dL
- RALB ([…], time 28 day): 2.7 g/dL
- TBIL ([…], time 28 day): 0.048 mg/dL
- TC ([…], time 28 day): 65.4 mg/dL
- TG ([…], time 28 day): 154.8 mg/dL
- TP ([…], time 28 day): 6 g/dL
- gamma-GTP ([…], time 28 day): 1 IU/L
